{"source": "patent US10201558B2", "about": "“Compositions of selenoorganic compounds and methods of use thereof” (Alltech, Inc., priority 2014, dated 2019)", "key": {"[1]": {"system": "phosphorylated Foxo3 (threonine 32)", "test": "Western blot of phosphorylated Foxo3 in APP/PS1 mouse brains", "format": "in vivo", "conditions": "APP/PS1 mouse brain, Compound C diet vs control diet", "method": "Male APPΔNLh/ΔNLh×PS1P246 L/246 L knock-in model mice of Alzheimer's disease (abbreviated APP/PS1) were genotyped using standard primers for human APP (Amyloid Precursor Protein) and human PS1 (PSEN1).\nAt 12 months of age, the mice were euthanized and the brains quickly removed, the cerebellum isolated and the hemispheres snap-frozen in liquid nitrogen and then stored at −80° C. for further immunohistochemistry (IHC), protein and RNA analysis. All procedures conducted on these animal studies were pre-approved by the University of Kentucky IACUC committee.\nFrozen hemispheres of control- and Compound C-treated APP/PS1 mice were weighed and homogenized in PBS buffer, and then subsequently extracted with RIPA buffer (Sigma) containing complete proteinase and phosphatase inhibitors (Fisher Scientific). Protein levels in the samples were determined by micro-BCA protein analysis according to the manufacturer's protocol. […] Positive signals on the membrane blots were detected using Amersham's enhanced chemiluminescence Western Blotting Prime Detection reagents (GE healthcare Lifescience, Pittsburgh, Pa.). Images of these luminescence signals on the membrane blots were captured using the LI-COR Odyssey Fc Image system (Lincoln, Nebr.). […]"}, "IMR-32 cells": {"system": "IMR-32 cells", "test": "Cell viability assay (CellTiter96 AQueous One, OD490)", "format": "cell-based, human", "conditions": "150 ppb, 72 hours", "method": "Cell viability in cultured IMR-32 cells was determined using Promega's CellTiter96® AQueous One Solution Cell Proliferation Assay kits, according to the manufacturer's protocol and instructions. In brief, IMR-32 cells were seeded on 96-well clear plates (VWR) at a density of 2×10^4 cells/well, and treated with control or compounds of the present invention for 24 hours, 28 hours, and/or 72 hours.\nThe cultured cells were then incubated with AQueous One solution (100 ul/per well) at 37° C. for 1 hour. The absorbance at OD490 nm in each sample was determined by a Bio-Tek microplate reader. Cell viability in cultured cells were determined by the subtraction of OD490 nm in cultured cells with the OD490 nm in plain culture media without seeding of cells (control). Eight samples per each treatment were examined for the above analysis.\nCell viability assays were performed on cells after treatment with various compounds (150 ppb selenium compounds and equal dilution of their sulfur analog) for 24 hours, and 72 hours."}, "G6PC": {"system": "G6PC", "test": "Western blot of G6PC protein in IMR-32 cells", "format": "cell-based, human", "conditions": "150 ppb, 24 hours", "method": "IMR-32 cells were seeded on 6-well plates and then treated with control and various compounds for 6 hours and 24 hours, as described above. After treatments, cells were rinsed with ice-cold PBS and lysed in ice-cold RIPA buffer containing complete proteinase and phosphatase inhibitors (Thermo-Fisher Scientific, Waltham, Mass.) on ice for 30 min Cell lysates were collected using a cell scraper and transfer pipette and then centrifuged at 12000×g for 30 min at 4° C. to remove the DNA pellet and obtain the protein extract. Protein levels in the supernatant of these cell lysates were determined using the Pierce Micro-BCA protein assay kit (Thermo Scientific-Piece Biotechnology, Rockford, Ill.) according to the manufacturer's protocol […]\nPositive signals on the membrane blots were detected using Amersham's enhanced chemiluminescence (ECL) Western Blotting Prime Detection reagents (GE healthcare Lifescience, Pittsburgh, Pa.). Images of these luminescence signals on the membrane blots were captured using the LI-COR Odyssey Fc Image system (Lincoln, Nebr.). […] Protein band densities in the Western blots were determined using the Li—COR Image studio software or NIH ImageJ software, and then normalized by ACTB protein level in each sample. […]"}, "BACE1": {"system": "BACE1", "test": "Western blot of BACE1 in APP/PS1 mouse brains", "format": "in vivo", "conditions": "APP/PS1 mice, Compound C diet vs control diet", "method": "(§1) Male APPΔNLh/ΔNLh×PS1P246 L/246 L knock-in model mice of Alzheimer's disease (abbreviated APP/PS1) were genotyped using standard primers for human APP (Amyloid Precursor Protein) and human PS1 (PSEN1). These APP/PS1 mice starting at the age of 6 months, were fed either a control diet containing normal levels of selenium (0.3 ppm from plant and inorganic selenium salt sources) or an experimental diet containing Compound C (the control diet to which was added 1 ppm Se from Compound C) for 6 months. […]\n(§2) Frozen hemispheres of control- and Compound C-treated APP/PS1 mice were weighed and homogenized in PBS buffer, and then subsequently extracted with RIPA buffer (Sigma) containing complete proteinase and phosphatase inhibitors (Fisher Scientific). Protein levels in the samples were determined by micro-BCA protein analysis according to the manufacturer's protocol. […] Positive signals on the membrane blots were detected using Amersham's enhanced chemiluminescence Western Blotting Prime Detection reagents (GE healthcare Lifescience, Pittsburgh, Pa.). Images of these luminescence signals on the membrane blots were captured using the LI-COR Odyssey Fc Image system (Lincoln, Nebr.). Protein band densities in Western blots were determined using NIH Image J software, and then normalized by Actb levels in each samples to obtain the protein levels."}, "Iba-1": {"system": "Iba-1", "test": "Western blot of Iba-1 in APP/PS1 mouse brains", "format": "in vivo", "conditions": "APP/PS1 mice, Compound C diet vs control diet", "method": "as §1, §2"}, "[2]": {"system": "Insulin Degrading Enzyme (IDE)", "test": "Western blot of insulin degrading enzyme in APP/PS1 mouse brains", "format": "in vivo", "conditions": "APP/PS1 mice, Compound C diet vs control diet", "method": "as §1, §2"}}, "note": "Entries after “also recorded” stand apart in the source; their conditions may differ."}
{"smiles": "C[Se]C[C@H]1O[C@@H](n2cnc3c(N)ncnc32)C(O)C1O", "note": "(stereo in doubt) [Compound C, 5′-deoxy-5′-methylselenoadenosine]", "values": [{"measurement": "phosphorylated Foxo3 at threonine 32 (pFoxo3) protein", "setting": "[1]", "result": "inhibition; also recorded: less abundant; also recorded: significant decrease"}, {"measurement": "cell viability (OD490)", "setting": "IMR-32 cells", "result": "small, but significant increase"}, {"measurement": "G6Pc protein levels", "setting": "G6PC", "result": "visibly increased"}, {"measurement": "increase of G6Pc protein expression levels", "setting": "G6PC; quantitative analysis", "result": "~3", "unit": "fold"}, {"measurement": "BACE-1 protein levels in the brains", "setting": "BACE1", "result": "reduced; also recorded: decreased"}, {"measurement": "Iba-1 protein levels in the brains", "setting": "Iba-1", "result": "reduced; also recorded: decreased"}, {"measurement": "IDE protein levels in the brains", "setting": "[2]", "result": "increased; also recorded: elevated"}]}
